Patent US6770787B2, “Heavier halogen atom substituted squaraine based dyes, process for the preparation thereof and use thereof as sensitizers for photodynamic, therapeutical and industrial applications” (priority 2001, dated 2004)
Where two headings read alike, the source gives them in different places.

Experiments:
PM2 DNA [1] = test: plasmid DNA cleavage (DNA relaxation assay, single strand breaks) by dye plus light; format: biochemical; conditions: for Relative number of single strand breaks (%): SSB in phosphate buffer pH 7.4 without additive = 100%; for fold enhancement in the cleavage of DNA: in D2O
Text: The mechanism of in vitro photodynamic activity of squaraines has been evaluated in detail by using plasmid DNA (PM2 DNA) and investigating the cleavage of DNA under a variety of conditions. Cleavage of DNA cleavage was followed by monitoring the conversion of supercoiled (Form I) to open circular (Form II) and linear forms (Form III). Induction of one single strand break by a compound/agent converts Form I to Form II and the quantification of these forms by DNA relaxation assay as described previously (Epe, B.; Hegler, J. J. Methods Enzymol. 1994, 234, 122) indicates its efficiency of DNA cleavage. Plasmid DNA cleavage is a very sensitive technique, which can be used to test the various properties of sensitizers and the DNA damage profiles obtained by using scavengers and activators can serve as a kind of fingerprint of the species directly responsible for the damage and also provide the information on the mechanism of in vitro photodynamic activity.
PM2 DNA (10,000 bp, 10 μg/mL) exposed to squaraine dyes plus light from a 1000 W halogen lamp (Philips PF811) at a distance of 33 cm in phosphate buffer (5 mM KH2PO4, 50 mM NaCl, pH 7.4) on ice. The modified DNA was precipitated by ethanol/sodium acetate and quantified the single strand breaks (SSB) by DNA relaxation assay. Superoxide dismutase (SOD) (20 μg/ml), catalase (315 U/ml) were added or the H2O in the buffer was replaced by D2O (the final isotope purity was greater than 96%) to have a better understanding of the active species involved. The results of these studies with representative squaraine based dyes bis(3,5-dibromo-2,4,6-trihydroxyphenyl)squaraine and bis(3,5-diiodo-2,4,6-trihydroxyphenyl)squaraine are shown in TABLE 2.

[2] = solubility at physiological pH; conditions: physiological pH conditions
PM2 DNA [3] = test: plasmid DNA cleavage (DNA relaxation assay, single strand breaks) by dye plus light; format: biochemical; conditions: SSB in phosphate buffer pH 7.4 without additive = 100%
[4] = stability in the dark in ethanol and phosphate buffer (absorbance change); format: physicochemical; conditions: for Absorbance: 25° C.
Procedure: (§1) The information about the stability of the sensitizer in presence and absence of light is important for its practical use. Therefore, the stability of these dyes in presence and absence of light in ethanol and phosphate buffer at physiological pH conditions (pH 7.4) at 25° C. was studied by following the absorbance change using spectrophotometry. The results of change in absorbance vs time in the dark with representative squaraine based dyes bis(3,5-dibromo-2,4,6-trihydroxyphenyl)squaraine and bis(3,5-diiodo-2,4,6-trihydroxyphenyl)squaraine are shown in TABLE 3.

[5] = photosensitized singlet oxygen generation in presence and absence of polyvinylpyrrolidone; format: physicochemical
Text: Because triplet excited states were the major transient intermediates obtained upon 532 nm laser flash photolysis studies of bis(3,5-dibromo-2,4,6-trihydroxyphenyl)squaraine and bis(3,5-diiodo-2,4,6-trihydroxyphenyl)squaraine, the efficiency of photosensitized singlet oxygen generation by these systems have been examined, since singlet oxygen is the main cytotoxic agent of the type II reactions in photodynamic therapy. Since singly deprotonated forms of bis(3,5-dibromo-2,4,6-trihydroxyphenyl)squaraine and bis(3,5-diiodo-2,4,6-trihydroxyphenyl)squaraine, have significant triplet yields and have long lifetimes (Ramaiah, D; Joy, A.; Chandrasekhar, N; Eldho, N. V.; Das, S.; George, M. V. Photochem. Photobiol. 1997, 65, 783), moreover these are the forms that are expected to be the predominant species under the biological pH conditions (around 7.4). The first level characterization of these dyes for using them as sensitizers in photodynamic therapy, we have investigated their efficiency of singlet oxygen generation in presence of drug carriers, membrane mimics and microheterogeneous media. Results obtained in presence of polyvinylpyrrolidone (PVP) using bis(3,5-dibromo-2,4,6-trihydroxyphenyl)squaraine and bis(3,5-diiodo-2,4,6-trihydroxyphenyl)squaraine are shown in TABLE 1.

AS52 cells [6] = test: induction of micronuclei; format: cell-based
Procedure: Further to understand the genetic effects, the micronuclei induced by bis(3,5-dibromo-2,4,6-trihydroxyphenyl)squaraine and bis(3,5-diiodo-2,4,6-trihydroxyphenyl)squaraine were also quantified in AS52 cells. AS52 cells were exposed to squaraines as described above and resuspended in full medium. After incubation for 24 h at 39° C., approximately 1×10^5 cells were fixed on a microscope slide by cytospin-centrifugation and treatment with methanol for 1 h at −21° C. After staining with bisbenzimide for 3 min in PBS (without Ca2+ and Mg2+), 2000 cells were examined for the presence of micronuclei with a fluorescent microscope.

[7] = stability under irradiation conditions (photobleaching) in buffer; format: physicochemical; conditions: for Absorbance: 1000 W halogen lamp; for photobleaching: within 5 min of irradiation, buffer pH 7.4
Procedure: as §1
Compound bis(3,5-diiodo-2,4,6-trihydroxyphenyl)squaraine undergoes very fast photobleaching (nearly 50% within 5 min of irradiation), when compared to bis(3,5-dibromo-2,4,6-trihydroxyphenyl)squaraine (25%). The photobleaching was increased with the time of irradiation in both the cases. While photobleaching might be thought to be disadvantageous property in a tumor photosensitizer, but it has potential benefits since dosage can be adjusted to keep the photosensitizer in tumor at effective levels. Moreover because of their fast photobleaching, a patient after the photodynamic treatment is not required to stay in the dark for long periods of time and if required therapy can be repeated frequently with short intervals of time.

AS52 cells [8] = test: mutagenicity, gpt locus, 6-thioguanine resistant cells; format: cell-based
Procedure: The mutagenic properties of squaraine based sensitizers was measured in AS52 cells, which carry the bacterial guanine phosphoribosyltraiisferase (gpt) gene as a selection marker that confers sensitivity to 6-thioguanine. AS52 cells were cultured in cleansing medium containing 11 μg/ml xanthine 219 μg/ml xanthine, 22 μg/ml adenine, 1.2 μg/ml aminopterin and 8.8 μg/ml mycophenolic acid) for one week to eliminate spontaneous gpt mutants. […] During this time, exponential growth of cells was maintained. 2×10^5 cells were diluted in 10 ml culture medium and plated in petri dishes (94 mm) After 2 h, 6-thioguanine was added to each plate (final concentration 2.5 μg/ml) for selection. 200 cells were added in 5 ml culture medium and plated in petri dishes (60 mm) to determine the cloning efficiencies. The plates were incubated for 7 to 9 days. The medium was replaced by NaCl solution (0.9% v/v), the cell colonies were fixed with methanol (−20° C.) for 15 min and stained with Giemsa (10% in H2O) for 15 min. The subsequent quantification of 6-thioguanine resistant cells and the determination of cytotoxicity (ratio of the plating efficiences of treated and untreated cells) directly after exposure to squaraines plus light carried out according to the protocol (Tindall, K. R.; Stankowski Jr. L. F.; Machanoff, R.; Hsie, A. W. Mutat. Res. 1986, 160, 121-131).

AS52 cells [9] = test: cell killing efficiency (cytotoxicity) with and without light; format: cell-based; conditions: for cytotoxicity (cell survival): in the dark; for cell killing efficiency (% of cell survival): under illumination conditions, increasing concentration
Procedure: To measure the cell killing efficiency (cytotoxicity) of squaraine based sensitizers with and without light, AS52 cells were exposed to various concentrations of sensitizer. The light exposure was carried out from a 1000 W halogen lamp at a distance of 33 cm in Ca^2+ and Mg^2+ free PBS (140 mM NaCl, 3 mM KCl, 8 mM Na2HPO4, pH 7.4) on ice (10^6 cells/ml). […] The cells were pelleted by centrifugation and resuspended in PBSG three times. The cells were resuspended at 3×10^4 cells/ml in fresh medium at 37° C. and the number of cells were counted repeatedly for 60 h. From the exponential part of the growth curves (between 24 and 60 h), the number of poliferating cells at the time of resuspension was calculated by extrapolation. Cell survival was defined as the ratio between proliferating and resuspended cells.

[10] = buffer pH 7.4, irradiation time 0 min
[11] = buffer pH 7.4, irradiation time 5 min
[12] = buffer pH 7.4, irradiation time 10 min
[13] = buffer pH 7.4, irradiation time 15 min
[14] = buffer pH 7.4, irradiation time 20 min
[15] = buffer pH 7.4, irradiation time 30 min

| Structure (SMILES) | Relative number of single strand breaks (%) (PM2 DNA [1]; Catalase (315 U/mL)) | Relative number of single strand breaks (%) (PM2 DNA [1]; D2O Buffer) | Relative number of single strand breaks (%) (PM2 DNA [1]; SOD (20 g/mL)) | fold enhancement in the cleavage of DNA (PM2 DNA [1]) | solubility [2] | Relative number of single strand breaks (%) (PM2 DNA [3]; PH 7.8) | Relative number of single strand breaks (%) (PM2 DNA [3]; pH 7.0) | Absorbance ([4]; buffer pH 7.4, dark, 0 min) | Absorbance ([4]; buffer pH 7.4, dark, 30 min) | Absorbance ([4]; buffer pH 7.4, dark, 60 min) | Absorbance ([4]; buffer pH 7.4, dark, 90 min) | singlet oxygen quantum yields ([5]; PVP 0 mM) | singlet oxygen quantum yields ([5]; PVP 14 mM) | Absorbance [7, 10] | Absorbance [7, 11] | Absorbance [7, 12] | Absorbance [7, 13] | Absorbance [7, 14] | Absorbance [7, 15] | photobleaching [7] | further results |
| --- | --- | --- | --- | --- | --- | --- | --- | --- | --- | --- | --- | --- | --- | --- | --- | --- | --- | --- | --- | --- | --- |
| O=C1C(I)=C(O)C(=C2C(=O)C(c3c(O)c(I)c(O)c(I)c3O)=C2O)C(O)=C1I [bis(3,5-diiodo-2,4,6-trihydroxyphenyl)squaraine] | 92 ± 6% | 614 ± 97% | 100 ± 2% | six fold | good solubility | 109 ± 22% | 134 ± 9% | 1.35 | 1.47 | 1.38 | 1.36 | 0.47 ± 0.017 | 0.62 ± 0.007 | 1.72 | 0.87 | 0.74 | 0.65 | 0.58 | 0.47 | ~50% | stability in the dark ([4]; buffer solutions at pH 7.4, 90 min): slight bleaching; stability in the dark ([4]; ethanol): very stable; increase in efficiency of singlet oxygen generation ([5]; in microheterogeneous media compared with methanol): ~15%; induction of micronuclei (AS52 cells [6]; in presence and absence of light, 24 h incubation): do not induce significant amounts of micronuclei; induction of mutations (6-thioguanine resistant cells) (AS52 cells [8]; in presence and absence of light): do not induce immediate mutations; cytotoxicity (ratio of plating efficiencies) (AS52 cells [8]; in presence of light): severe cytotoxicity; cytotoxicity (cell survival) (AS52 cells [9]): no significant effect; cell killing efficiency (% of cell survival) (AS52 cells [9]): high cell killing efficiency |
| O=C1C(Br)=C(O)C(=C2C(=O)C(c3c(O)c(Br)c(O)c(Br)c3O)=C2O)C(O)=C1Br [bis(3,5-dibromo-2,4,6-trihydroxyphenyl)squaraine] | 115 ± 5% | 526 ± 28% | 109 ± 5% | Nearly five | good solubility | 105 ± 4% | 127 ± 12% | 1.84 | 1.72 | 1.65 | 1.61 | 0.13 ± 0.005 | 0.29 ± 0.001 | 1.8 | 1.35 | 1.30 | 1.25 | 1.17 | 1.10 | 25% | stability in the dark [4]: very stable; Absorbance ([4]; ethanol, dark, 0 min): 1.90; Absorbance ([4]; ethanol, dark, 30 min): 1.88; Absorbance ([4]; ethanol, dark, 60 min): 1.88; Absorbance ([4]; ethanol, dark, 90 min): 1.88; induction of micronuclei (AS52 cells [6]): do not induce significant amounts of micronuclei; induction of mutations (6-thioguanine resistant cells) (AS52 cells [8]): do not induce immediate mutations; cytotoxicity (cell survival) (AS52 cells [9]): no significant effect; cell killing efficiency (% of cell survival) (AS52 cells [9]): high cell killing efficiency |
